Test results taken from patent publication EP4201411A1, “NOVEL USE OF VITAMIN B12” (DSM IP Assets B.V., priority 2021, dated 2023).

Key:
Assay type in all cases: cell-based, human
skin explants = experiment: LDH cytotoxicity assay on UV-B irradiated skin explants (ex vivo); details: for Cytotoxicity [OD 450 nm] Mean/conditions: LDH production, skin explants irradiated with 200 mJ/cm2 UVB
Protocol: (§1) To further define the benefits of vitamin B12 in the skin, we included analysis of the compound in response to a stressor that induces inflammasome-medicated inflammation. Stress model options include UV exposure, confirming the effects on more complex skin tissues (ex vivo model). Firstly, the cytotoxicity of the active ingredient was evaluated. Then, the capacity of the active ingredient was measured to regulate inflammasome activation. […] Using immunohistochemistry, the effect of the active ingredient on the level of ASC protein (inflammasome marker) was studied. Finally, the expression level of miRNA hsa-miR-22-3p was quantified from RT-qPCR.
(§2) Ex vivo culture model and treatment: Fresh skin explants were obtained from abdominal surgery of a person. The culture medium dedicated to skin explants was used and renewed every day during each treatment. The skin biopsies were cultured in different conditions and each condition was performed in triplicates and processed separately. The active ingredient treatment was applied before and after the UV-B stress, but not during the UV stress. An UV-B irradiation of […] for 2 minutes was applied identically onto each irradiated skin explant. Prior to the irradiation, the culture medium was removed and replace by PBS +/+ for the duration of the stress.
(§3) Samples: • 1.Control Explant (No treatment, no irradiation) (NT_NS) • 2. Explant + UVB (NT_UV) • 3. Explant + UVB + vitamin B12 (0.01%) • 4. Explant + UVB + vitamin B12 (0.001%) Total no. of samples = 4 x 3 = 12 samples
Cytotoxicity method: Lactate dehydrogenase assay kit (LDH) was purchased from Roche and used according to manufacturer's protocol.
Table 1: Effect of vitamin B12 on LDH production by skin explants at 2 concentrations (0,01% and 0,001%) and of the positive control Triton at 0.1% after irradiation with 200 mJ/cm2 UVB. The statistical analysis was performed using two-tailed unpaired T-test and was not significant (p<0.05) for the vitamin B12 treatment vs irradiated control (NT_UV).

Interleukin-1β = experiment: IL-1β competitive ELISA on culture supernatants of UV-B irradiated skin explants (ex vivo); details: vitamin B12 0,01%
Protocol: as §1, §2, §3
The secretion of Interleukin-1β in response to activation of the stress-induced inflammatory signaling pathway was evaluated using a competitive ELISA assay. 24 hours after exposure to UV-B irradiation, culture supernatants of explants were recovered. The samples were then treated according to the manufacturer's instructions using the IL-1β (RAB0273, Sigma Aldrich). The Interleukin production by explants was measured at 450 nm using ENSIGHT.
IL-1β secretion results: UV-B increased the production of IL-1β compared to the untreated control. […]

miR-22-3p = miR-22-3p quantification by RT-qPCR in UV-B irradiated skin explants (ex vivo); details: for miR-22-3p QR mean: skin explants, UV-B 200 mJ/cm2, normalized using U6 RNA, NT_UV = 1.067; for expression level of miR-22-3p (in words): skin explants after UV-B stress, vs NT_UV
Protocol: as §1, §2, §3
The miRNAs were extracted and purified using miRCURY RNA Isolation Kit. The quality control and miRNA quantification were performed using Agilent RNA Small kit and Analysis Agilent 2100 bioanalyzer. For miR qPCR, the RNA was reverse transcribed with a miRCURY LNA RT kit (339340, Qiagen). The reverse transcription reactions were diluted, and a fraction of diluted cDNA was used for each quantitative PCR, which was performed with a miRCURY LNA SYBR Green PCR kit (339346, Qiagen) using the CFX-connect (Biorad). The results were normalized to U6 expression. The reference and expression level of miRNA were calculated using 2ΔΔCt method.
Table 2: Effect of vitamin B12 on miR expression in skin explants after UV-B stress. The explants were treated with vitamin B12 at two concentrations (0,01% and 0,001%) and irradiated with UV-B at 200 mJ/cm2. The miR expression was normalized using U6 RNA. Two-tailed unpaired t-test was used for statistical analysis (using values from 3 replicates) vs NT_UV (*p-value <0.05).

ASC protein = experiment: ASC immunostaining of sections of UV-B irradiated skin explants (ex vivo); details: for ASC complex, % / ASC complex, mean_int (int/area) / ASC complex, Mean intensity / condition: skin explant sections, UVB 200mJ/cm2; for ASC complex, %: NTNS = 100.00, NTUV = 138.17; for ASC complex, mean_int (int/area) / ASC complex, Mean intensity / condition: n =38; for ASC complex, Mean intensity / condition: NTUV = 660.03, NTNS = 477.70
Protocol: as §1, §2, §3
To evaluate the onset of apoptotic signaling, the fluorescence intensity of ASC was measured. After UV exposure, the explants were replaced in a fresh culture medium. At the end of the treatments the explants were frozen and then cut into thin sections. Following this, immunohistochemistry was performed by adding primary monoclonal Antibody ASC/TMS1/PYCARD (clone B-3) (SantaCruz #sc-514414) and secondary antibody anti-mouse coupled to Cy5 (Jackson Laboratory). After Hoechst 33342 staining, the fluorescence intensity was measured using a Zeiss fluorescence microscope (Axio imager Z1).
Table 4: Quantification of ASC complex immunolabelled in skin explant sections with or without UV-B stress and after vitamin B12 treatment at 0,01% or 0,001% and irradiated or not with UVB at 200mJ/cm2. The statistical analysis was performed using two-tailed unpaired T-test vs NT_UV (+ p-value <0.05, ++ p-value<0.01, +++ p-value<0.001).

Substance: cyanocobalamin [vitamin B12]
- Cytotoxicity [OD 450 nm] Mean/conditions (skin explants; vitamin B12 0,01%): 0.131 OD 450 nm
- Cytotoxicity [OD 450 nm] Mean/conditions (skin explants; vitamin B12 0,001%): 0.163 OD 450 nm
- cytotoxicity (in words) (skin explants; vitamin B12 0,01% and 0,001%, skin explants after UVB, compared to biopsies treated with Triton 0.1%): did not exert cytotoxicity
- IL-1β secretion (in words) (Interleukin-1β; skin explants after UV-B stress): seems to decrease
- IL-1β secretion, Relative Intensity (Interleukin-1β; skin explants after UV-B, NT_NS = 100, NT_UV = 157): 137
- IL-1β secretion, Mean Intensity (Interleukin-1β; skin explants, 24 hours after UV-B, NT_UV = 4.914, NT_NS = 3.122): 4.2644
- miR-22-3p QR mean (miR-22-3p; vitamin B12 0,01%): 1.721
- expression level of miR-22-3p (in words) (miR-22-3p; vitamin B12 0.01%): significantly increased
- expression level of miR-22-3p (in words) (miR-22-3p; vitamin B12 0,001%): tends to increase miR-22-3p expression, but this activation is not statistically significant
- miR-22-3p QR mean (miR-22-3p; vitamin B12 0,001%): 1.334
- ASC complex, % (ASC protein; vitamin B12 0,01%): 103.22%
- ASC complex, mean_int (int/area) (ASC protein; vitamin B12 0,01%): 491.31 int/area
- ASC complex, Mean intensity / condition (ASC protein; vitamin B12 0,01%): 493.07
- ASC protein (in words) (ASC protein; vitamin B12 0.001 % and 0.01 % topically on UV-irradiated skin explants): significantly reduced the ASC protein in a dose-dependent manner
- ASC complex activation (in words) (ASC protein; vitamin B12 0.001%, after UV-B treatment): significantly reduces the ASC complex activation
- ASC complex activation (in words) (ASC protein; vitamin B12 0.01%, compared to the UV-B stressed sample): significantly reduce the ASC complex activation to the level of the none irradiated extract
- ASC complex, % (ASC protein; vitamin B12 0,001%): 118.48%
- ASC complex, mean_int (int/area) (ASC protein; vitamin B12 0,001%): 524.44 int/area
- ASC complex, Mean intensity / condition (ASC protein; vitamin B12 0,001%): 565.99
